These results are taken from patent publication US9296759B2, “Amino-oxazine and amino-dihydrothiazine compounds as beta-secretase modulators and methods of use” (AMGEN INC., priority 2011, dated 2016).

The subject of assay [1] is Aβ40 in conditioned medium of cells stably expressing Amyloid Precursor Protein (APP). The experiment in a line: In vitro BACE cell-based assay (HEK cell assay, Aβ40 sandwich ELISA). Conditions: Homo sapiens, HEK293; average IC50, Aβ40, 24 h incubation. The procedure: In Vitro BACE Cell-Based Assay
The cell-based assay measures inhibition or reduction of Aβ40 in conditioned medium of test compound treated cells expressing amyloid precursor protein.
Cells stably expressing Amyloid Precursor Protein (APP) were plated at a density of 40K cells/well in 96 well plates (Costar). The cells were cultivated for 24 hours at 37° C. and 5% CO2 in DMEM supplemented with 10% FBS. The test compounds were then added to cells in 10-point dose response concentrations with the starting concentration being either 100 μM or 10 μM. The compounds were diluted from stock solutions in DMSO and the final DMSO concentration of the test compounds on cells was 0.1%. After 24 h of incubation with the test compounds the supernatant conditioned media was collected and the Aβ 40 levels were determined using a sandwich ELISA. The IC50 of the compound was calculated from the percent of control or percent inhibition of Aβ 40 as a function of the concentration of the test compound.
The sandwich ELISA to detect Aβ 40 was performed in 96 well microtiter plates, which were pre-treated with goat anti-rabbit IgG (Pierce). The capture and detecting antibody pair that were used to detect Aβ 40 from cell supernatants were affinity purified pAb40 (Biosource) and biotinylated 6E10 (Signet Labs Inc.), respectively. The optimal concentration for the pAb40 antibody was 3 μg/ml in Superblock/TBS (Pierce) that was supplemented with 0.05% Tween 20 (Sigma).
Cellular supernatants were incubated with the capture antibody for 3 h at 4° C., followed by 3 wash steps in TBS-tween (0.05%). The detecting antibody incubation was for 2 h at 4° C., again followed by the wash steps as described previously. The final readout of the ELISA is Time-Resolved Fluorescence (counts per minute) using Delfia reagents Streptavidin-Europium and Enhancement solutions (Perkin Elmer) and the Victor 2 multilabel counter (Perkin Elmer).
(In general: In an ELISA, binding on a coated surface is turned into a signal by an enzyme label.)

The target of the next assay is Cathepsin D (Homo sapiens (Human), UniProt P07339). The experiment in a line: In vitro enzymatic Cat D (Cathepsin D) FRET assay. It counts as biochemical. As to conditions: average IC50. As to the method: In Vitro Enzymatic Cat D (Cathepsin D) FRET (Fluorescence Resonance Energy Transfer) Assay
Sequence of Cathepsin D (P07339 65-412, species assumed): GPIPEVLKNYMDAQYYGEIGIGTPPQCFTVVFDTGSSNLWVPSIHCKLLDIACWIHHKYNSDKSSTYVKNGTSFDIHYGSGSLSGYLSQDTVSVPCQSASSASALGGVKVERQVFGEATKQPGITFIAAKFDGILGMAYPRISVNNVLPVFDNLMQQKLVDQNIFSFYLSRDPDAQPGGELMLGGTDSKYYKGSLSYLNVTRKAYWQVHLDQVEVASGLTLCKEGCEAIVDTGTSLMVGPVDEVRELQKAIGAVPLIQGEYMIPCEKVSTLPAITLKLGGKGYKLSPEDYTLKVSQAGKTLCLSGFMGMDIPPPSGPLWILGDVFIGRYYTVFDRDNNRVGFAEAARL
Recombinant CathepsinD was expressed in CHO cells. The assay buffer for CathepsinD is 0.05 M citrate pH 3.5, 10% DMSO final, 5 mM CHAPS. […] The assays are effectively started by the addition of different FRET substrates (20 nM for CathepsinD) and the combination is incubated for one hour. The FRET assay is terminated with by addition of Tris buffer, which raises the pH to neutrality, and the fluorescence is determined. The FRET substrate is a peptide with commercially available fluorophore and quencher, on opposite sides of the BACE cleavage site. […] Proteolytic cleavage of the FRET substrate releases quenching of fluorescence (CathepsinD excitation 500 nm and emission 580 nm).

Assay [2] has as its target BACE 1 (beta secretase enzyme) (Homo sapiens (Human), UniProt P56817). The experiment in a line: In vitro enzymatic BACE FRET assay. It counts as biochemical. As to conditions: average IC50. The procedure:
In Vitro Enzymatic BACE FRET (Fluorescence Resonance Energy Transfer) Assay
The assay buffer used in this screen is 0.05 M acetate, pH 4.2, 10% DMSO final, 100 uM genapol (which is a nonionic detergent, below its Critical Micelle Concentration). […] This assay is effectively started by the addition of FRET substrate (50 nM) and the combination is incubated for one hour. The FRET assay is terminated with by addition of Tris buffer, which raises the pH to neutrality, and the fluorescence is determined. The FRET substrate is a peptide with commercially available fluorophore and quencher, on opposite sides of the BACE cleavage site. Proteolytic cleavage of the FRET substrate releases quenching of fluorescence (excitation […] and […]).

Sequence of BACE 1 (beta secretase enzyme) (P56817 46-501): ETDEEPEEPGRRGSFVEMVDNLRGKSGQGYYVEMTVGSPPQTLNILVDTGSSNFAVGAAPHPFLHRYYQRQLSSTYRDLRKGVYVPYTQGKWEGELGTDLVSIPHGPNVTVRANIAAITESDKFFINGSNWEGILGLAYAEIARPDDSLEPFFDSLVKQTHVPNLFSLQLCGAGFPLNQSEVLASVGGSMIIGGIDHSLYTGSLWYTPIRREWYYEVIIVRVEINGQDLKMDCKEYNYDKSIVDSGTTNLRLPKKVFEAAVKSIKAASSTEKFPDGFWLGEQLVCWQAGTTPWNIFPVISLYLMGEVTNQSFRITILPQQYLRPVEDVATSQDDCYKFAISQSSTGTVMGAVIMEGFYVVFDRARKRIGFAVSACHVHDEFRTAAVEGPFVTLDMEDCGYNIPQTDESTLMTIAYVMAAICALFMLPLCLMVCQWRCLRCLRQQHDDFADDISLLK

Usually IC50 stands for the midpoint of a concentration-inhibition curve. Consider `COc1cc(F)c2c(c1)[C@]1(CCSC(N)=N1)c1cc(NC(=O)c3ccc(Cl)cn3)ccc1O2` [Example 32, N-((4S)-2-amino-5′-fluoro-7′-methoxy-5,6-dihydrospiro[1,3-thiazine-4,9′-xanthen]-2′-yl)-5-chloro-2-pyridinecarboxamide], for which the IC50 in assay [1] worked out at 31.8 nM; at Cathepsin D, 350000 nM.
Taken in the same sequence, the figures for `NC1=N[C@@]2(CCO1)c1cc(NC(=O)c3ccc(Cl)cn3)ccc1Oc1c2cc(Cl)nc1F` [Example 38, N-((5S)-2′-amino-3-chloro-1-fluoro-5′,6′-dihydrospiro[chromeno[2,3-c]pyridine-5,4′-[1,3]oxazin]-7-yl)-5-chloro-2-pyridinecarboxamide] were 31 nM and greater than 400000 nM.
In the same order, the values of `Cc1cccnc1Nc1ccc2c(c1)[C@@]1(CCOC(N)=N1)c1cc(Cl)nc(F)c1O2` [Example 41, (5S)-3-chloro-1-fluoro-N~7~-(3-methyl-2-pyridinyl)-5′,6′-dihydrospiro[chromeno[2,3-c]pyridine-5,4′-[1,3]oxazine]-2′,7-diamine] are 279 nM and 386000 nM.
Taken in the same sequence, the figures for `COc1cc(F)c2c(c1)[C@]1(CCOC(N)=N1)c1cc(NC(=O)c3ccc(Cl)cn3)ccc1O2` [Example 42, N-((4S)-2-amino-5′-fluoro-7′-methoxy-5,6-dihydrospiro[1,3-oxazine-4,9′-xanthen]-2′-yl)-5-chloro-2-pyridinecarboxamide] were 20.5 nM and greater than 400000 nM.
On to `COc1cnc(C(=O)Nc2ccc3c(c2)[C@@]2(CCOC(N)=N2)c2cc(Cl)nc(F)c2O3)cn1` [Example 47, N-((5S)-2′-amino-3-chloro-1-fluoro-5′,6′-dihydrospiro[chromeno[2,3-c]pyridine-5,4′-[1,3]oxazin]-7-yl)-5-methoxy-2-pyrazinecarboxamide], for which the IC50 on Cathepsin D turned out to be 335000 nM.
`CC#CCOc1cnc(C(=O)Nc2ccc3c(c2)[C@@]2(CCOC(N)=N2)c2cc(Cl)nc(F)c2O3)cn1` [Example 48, N-((5S)-2′-amino-3-chloro-1-fluoro-5′,6′-dihydrospiro[chromeno[2,3-c]pyridine-5,4′-[1,3]oxazin]-7-yl)-5-(2-butyn-1-yloxy)-2-pyrazinecarboxamide]: the figures for the concentration for half-maximal inhibition (IC50) (in assay [1]; at Cathepsin D) were 0.3 nM and 151000 nM, respectively.
In the same order, the values of `COc1cnc(C(=O)Nc2ccc3c(c2)[C@@]2(CCOC(N)=N2)c2cc(C4CCOCC4)cc(F)c2O3)cn1` [Example 61, N-((4S)-2-amino-5′-fluoro-7′-(tetrahydro-2H-pyran-4-yl)-5,6-dihydrospiro[1,3-oxazine-4,9′-xanthen]-2′-yl)-5-methoxy-2-pyrazinecarboxamide] are 7.8 nM and 379000 nM.
Consider `N#Cc1ccc(C(=O)Nc2ccc3c(c2)[C@@]2(CCOC(N)=N2)c2cc(C4=CCOCC4)nc(F)c2O3)nc1` [Example 64, N-((5S)-2′-amino-3-(3,6-dihydro-2H-pyran-4-yl)-1-fluoro-5′,6′-dihydrospiro[chromeno[2,3-c]pyridine-5,4′-[1,3]oxazin]-7-yl)-5-cyano-2-pyridinecarboxamide], for which the half-maximal inhibitory concentration (IC50) in assay [2] was 0.74 nM; in assay [1] it was 0.039 nM.
Turning to `COc1cc(F)c2c(c1)[C@]1(CCOC(N)=N1)c1cc(NC(=O)c3cnc(OC)cn3)ccc1O2` [Example 75, N-((4S)-2-amino-5′-fluoro-7′-methoxy-5,6-dihydrospiro[1,3-oxazine-4,9′-xanthen]-2′-yl)-5-methoxy-2-pyrazinecarboxamide], the values for the concentration for half-maximal inhibition (IC50) (in assay [1]; on Cathepsin D) were 27 nM and 400000 nM, respectively.
Taken in the same sequence, the figures for `COc1ccc(C(=O)Nc2ccc3c(c2)[C@@]2(CCOC(N)=N2)c2cc(OC)cc(F)c2O3)c(F)c1` [Example 77, N-((4S)-2-amino-5′-fluoro-7′-methoxy-5,6-dihydrospiro[1,3-oxazine-4,9′-xanthen]-2′-yl)-2-fluoro-4-methoxybenzamide] were 181 nM and 331000 nM.
As for `Cc1nc(C(=O)Nc2ccc3c(c2)[C@@]2(CCOC(N)=N2)c2cc(C4=CCCOC4)nc(F)c2O3)cs1` [Example 85, N-((5S)-2′-amino-3-(5,6-dihydro-2H-pyran-3-yl)-1-fluoro-5′,6′-dihydrospiro[chromeno[2,3-c]pyridine-5,4′-[1,3]oxazin]-7-yl)-2-methyl-1,3-thiazole-4-carboxamide], the IC50 in assay [2] came to 0.9 nM; in assay [1] it was 0.08 nM.
Turning to `NC1=N[C@@]2(CCO1)c1cc(NC(=O)c3ccc(Cl)cn3)ccc1Oc1ncc(-c3ccnc(F)c3)cc12` [Example 90, N-((5S)-2′-amino-3-(2-fluoro-4-pyridinyl)-5′,6′-dihydrospiro[chromeno[2,3-b]pyridine-5,4′-[1,3]oxazin]-7-yl)-5-chloro-2-pyridinecarboxamide], the IC50 in assay [1] is 0.7 nM; at Cathepsin D it was 401000 nM.
Taken in the same sequence, the figures for `NC1=N[C@@]2(CCO1)c1cc(NC(=O)c3ccc(Cl)cn3)ccc1Oc1c2cc(-c2ccnc(F)c2)nc1F` [Example 91, N-((5S)-2′-amino-1-fluoro-3-(2-fluoro-4-pyridinyl)-5′,6′-dihydrospiro[chromeno[2,3-c]pyridine-5,4′-[1,3]oxazin]-7-yl)-5-chloro-2-pyridinecarboxamide] were 0.4 nM and 400000 nM.
In assay [1], `COc1nc(C2=CCOCC2)cc2c1Oc1ccc(NC(=O)c3ccc(F)cn3)cc1[C@@]21CCOC(N)=N1` [Example 96, N-((5S)-2′-amino-3-(3,6-dihydro-2H-pyran-4-yl)-1-methoxy-5′,6′-dihydrospiro[chromeno[2,3-c]pyridine-5,4′-[1,3]oxazin]-7-yl)-5-fluoro-2-pyridinecarboxamide] displayed an IC50 of 8.8 nM.
Turning to `COc1ccc(C(=O)Nc2ccc3c(c2)[C@@]2(CCOC(N)=N2)c2cc(-c4ccnc(F)c4)nc(F)c2O3)nc1` [Example 98, N-((5S)-2′-amino-1-fluoro-3-(2-fluoro-4-pyridinyl)-5′,6′-dihydrospiro[chromeno[2,3-c]pyridine-5,4′-[1,3]oxazin]-7-yl)-5-methoxy-2-pyridinecarboxamide], at Cathepsin D, the IC50 was 400000 nM.
On to `Cc1nc(C(=O)Nc2ccc3c(c2)[C@@]2(CCOC(N)=N2)c2cc(-c4ccnc(F)c4)nc(F)c2O3)cs1` [Example 99, N-((5S)-2′-amino-1-fluoro-3-(2-fluoro-4-pyridinyl)-5′,6′-dihydrospiro[chromeno[2,3-c]pyridine-5,4′-[1,3]oxazin]-7-yl)-2-methyl-1,3-thiazole-4-carboxamide], for which the IC50 is 0.8 nM in assay [2] and 0.4 nM in assay [1].
`NC1=N[C@@]2(CCO1)c1cc(NC(=O)c3ccc(F)cn3)ccc1Oc1c(F)cc(-c3ccnc(F)c3)cc12` [Example 102, N-((4S)-2-amino-5′-fluoro-7′-(2-fluoro-4-pyridinyl)-5,6-dihydrospiro[1,3-oxazine-4,9′-xanthen]-2′-yl)-5-fluoro-2-pyridinecarboxamide] registered an IC50 in assay [1] of 5.7 nM.
As for `N#Cc1ccc(C(=O)Nc2ccc3c(c2)[C@@]2(CCOC(N)=N2)c2cc(-c4ccnc(F)c4)cc(F)c2O3)nc1` [Example 108, N-((4S)-2-amino-5′-fluoro-7′-(2-fluoro-4-pyridinyl)-5,6-dihydrospiro[1,3-oxazine-4,9′-xanthen]-2′-yl)-5-cyano-2-pyridinecarboxamide], the IC50 was found to be 0.5 nM in assay [1] and 400000 nM on Cathepsin D.
Consider `COc1cnc(C(=O)Nc2ccc3c(c2)[C@@]2(CCSC(N)=N2)c2cc(-c4cncc(F)c4)nc(F)c2O3)cn1` [Example 112, N-((5S)-2′-amino-1-fluoro-3-(5-fluoro-3-pyridinyl)-5′,6′-dihydrospiro[chromeno[2,3-c]pyridine-5,4′-[1,3]thiazin]-7-yl)-5-methoxy-2-pyrazinecarboxamide], for which the values for the IC50 in assay [2] and in assay [1] were 2.8 nM and 1.2 nM, respectively.
